Where a SMILES comes first, the peptide text is derived from it. Bridges are numbered along the chain shown (N, C = ends). Roman numbers before positions name the chains, in order.
Tests used:
Relaxin-3 receptor 2 [1] = molecular target: T1, Relaxin-3 receptor 2 (Homo sapiens, UniProt Q8TDU9); assay: Agonist activity at human RXFP4 expressed in CHO-K1 cells assessed as reduction in forskolin-induced cAMP production by pCRE beta-galactosidase reporter assay; assay type: functional, cell-based
Relaxin-3 receptor 2 [2] = molecular target: T1, Relaxin-3 receptor 2; assay: Displacement of europium-labeled Eu(A)-mINSL5 from human RXFP4 expressed in CHO-K1 cells; assay type: cell-based

T1 sequence (Q8TDU9 whole entry): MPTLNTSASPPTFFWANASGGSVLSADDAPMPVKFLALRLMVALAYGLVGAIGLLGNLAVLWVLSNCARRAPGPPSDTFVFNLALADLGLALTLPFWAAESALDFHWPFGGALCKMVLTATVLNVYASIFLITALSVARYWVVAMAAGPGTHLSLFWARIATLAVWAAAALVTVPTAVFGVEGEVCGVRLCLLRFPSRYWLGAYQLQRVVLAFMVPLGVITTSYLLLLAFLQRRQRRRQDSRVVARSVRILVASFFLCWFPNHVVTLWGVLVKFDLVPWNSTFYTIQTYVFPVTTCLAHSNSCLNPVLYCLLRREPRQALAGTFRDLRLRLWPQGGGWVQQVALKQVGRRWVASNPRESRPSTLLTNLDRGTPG

| Molecule | EC50 (Relaxin-3 receptor 2 [1]) | Ki (Relaxin-3 receptor 2 [2]) |
| --- | --- | --- |
| CC[C@H](C)[C@@H]1NC(=O)[C@H](C(C)C)NC(=O)[C@H]([C@@H](C)O)NC(=O)[C@H](CCCNC(=N)N)NC(=O)[C@H](C(C)C)NC(=O)[C@H](Cc2ccc(O)cc2)NC(=O)[C@H](CC(=O)O)NC(=O)[C@H](CC(C)C)NC(=O)CNC(=O)[C@@H](NC(=O)[C@H](CC(C)C)NC(=O)[C@H](CCCCN)NC(=O)[C@@H](NC(=O)[C@@H](NC(=O)[C@H](CCC(N)=O)NC(=O)[C@H](CCCNC(=N)N)NC(=O)[C@@H](N)CO)[C@@H](C)O)C(C)C)CSSC[C@@H]2NC(=O)[C@@H](NC(=O)[C@H](CC(C)C)NC(=O)[C@H](C)NC(=O)[C@H](CCC(N)=O)NC(=O)[C@H](CC(C)C)NC(=O)[C@H](CC(=O)O)NC(=O)[C@@H](N)CCCNC(=N)N)CSSC[C@H](NC(=O)CNC(=O)[C@H](CCC(=O)O)NC(=O)[C@H](CCCNC(=N)N)NC2=O)C(=O)N[C@@H](CO)C(=O)N[C@@H](CCSC)C(=O)N[C@@H](CCCCN)C(=O)N[C@@H](CCC(=O)O)C(=O)N[C@@H](CC(C)C)C(=O)N[C@@H](CO)C(=O)N[C@@H]([C@@H](C)O)C(=O)N[C@@H](CC(C)C)C(=O)N[C@H](C(=O)O)CSSC[C@@H](C(=O)N[C@@H](C)C(=O)N[C@@H](CO)C(=O)N[C@@H](CO)C(=O)N[C@@H](CCCNC(=N)N)C(=O)N[C@@H](Cc2c[nH]c3ccccc23)C(=O)O)NC(=O)[C@H]([C@@H](C)CC)NC(=O)[C@@H](Cc2ccc(O)cc2)NC1=O | 0.51 nM | 1.58 nM |
| CC[C@H](C)[C@@H]1NC(=O)[C@H](Cc2ccc(O)cc2)NC(=O)[C@H]([C@@H](C)CC)NC(=O)[C@H](C(C)C)NC(=O)[C@H]([C@@H](C)O)NC(=O)[C@H](CCCNC(=N)N)NC(=O)[C@H]([C@@H](C)CC)NC(=O)[C@H](Cc2ccc(O)cc2)NC(=O)[C@H](CCC(=O)O)NC(=O)[C@H](CC(C)C)NC(=O)CNC(=O)[C@@H](NC(=O)[C@H](CC(C)C)NC(=O)[C@H](CCCNC(=N)N)NC(=O)[C@@H](NC(=O)[C@H](CO)NC(=O)[C@H](CCC(=O)O)NC(=O)[C@@H](N)CCCCN)C(C)C)CSSC[C@H](N)C(=O)N[C@@H](CCCNC(=N)N)C(=O)N[C@@H](CC(=O)O)C(=O)NCC(=O)N[C@@H](C)C(=O)N[C@@H](CO)C(=O)N[C@@H](CCSC)C(=O)N[C@@H](CCCCN)C(=O)N[C@@H](CC(=O)O)C(=O)N[C@@H](CC(C)C)C(=O)N[C@@H](CO)C(=O)N[C@@H](C)C(=O)N[C@@H](CC(C)C)C(=O)N[C@H](C(=O)O)CSSC[C@@H](C(=O)N[C@@H](C)C(=O)N[C@@H](CO)C(=O)N[C@@H](CO)C(=O)N[C@@H](CCCNC(=N)N)C(=O)N[C@@H](Cc2c[nH]c3ccccc23)C(=O)O)NC1=O (I: H-KESVRLCGLEYIRTVIYICASSRW-OH / II: H-CRDGASMKDLSALC-OH; disulfide I:7-II:1, I:19-II:14) | 39.8 nM | 23.4 nM |
| CC[C@H](C)[C@@H]1NC(=O)[C@H](Cc2ccc(O)cc2)NC(=O)[C@H]([C@@H](C)CC)NC(=O)[C@H](C(C)C)NC(=O)[C@H]([C@@H](C)O)NC(=O)[C@H](CCCNC(=N)N)NC(=O)[C@H]([C@@H](C)CC)NC(=O)[C@H](Cc2ccc(O)cc2)NC(=O)[C@H](CCC(=O)O)NC(=O)[C@H](CC(C)C)NC(=O)CNC(=O)[C@@H](NC(=O)[C@H](CC(C)C)NC(=O)[C@H](CCCNC(=N)N)NC(=O)[C@@H](NC(=O)[C@H](CO)NC(=O)[C@H](CCC(=O)O)NC(=O)[C@@H](N)CCCCN)C(C)C)CSSC[C@H](N)C(=O)N[C@@H](CCCNC(=N)N)C(=O)N[C@@H](CCC(=O)O)C(=O)NCC(=O)N[C@@H](C)C(=O)N[C@@H](CO)C(=O)N[C@@H](CCSC)C(=O)N[C@@H](CCCCN)C(=O)N[C@@H](CCC(=O)O)C(=O)N[C@@H](CC(C)C)C(=O)N[C@@H](CO)C(=O)N[C@@H]([C@@H](C)O)C(=O)N[C@@H](CC(C)C)C(=O)N[C@H](C(=O)O)CSSC[C@@H](C(=O)N[C@@H](C)C(=O)N[C@@H](CO)C(=O)N[C@@H](CO)C(=O)N[C@@H](CCCNC(=N)N)C(=O)N[C@@H](Cc2c[nH]c3ccccc23)C(=O)O)NC1=O (I: H-KESVRLCGLEYIRTVIYICASSRW-OH / II: H-CREGASMKELSTLC-OH; disulfide I:7-II:1, I:19-II:14) | 15.1 nM | 22.4 nM |
| CC[C@H](C)[C@@H]1NC(=O)[C@H](Cc2ccc(O)cc2)NC(=O)[C@H]([C@@H](C)CC)NC(=O)[C@H](C(C)C)NC(=O)[C@H]([C@@H](C)O)NC(=O)[C@H](CCCNC(=N)N)NC(=O)[C@H]([C@@H](C)CC)NC(=O)[C@H](Cc2ccc(O)cc2)NC(=O)[C@H](CCC(=O)O)NC(=O)[C@H](CC(C)C)NC(=O)CNC(=O)[C@@H](NC(=O)[C@H](CC(C)C)NC(=O)[C@H](CCCNC(=N)N)NC(=O)[C@@H](NC(=O)[C@H](CO)NC(=O)[C@H](CCC(=O)O)NC(=O)[C@@H](N)CCCCN)C(C)C)CSSC[C@H](N)C(=O)N[C@@H]([C@@H](C)O)C(=O)N[C@@H](CC(=O)O)C(=O)NCC(=O)N[C@@H](C)C(=O)N[C@@H](CO)C(=O)N[C@@H](CCSC)C(=O)N[C@@H]([C@@H](C)O)C(=O)N[C@@H](CC(=O)O)C(=O)N[C@@H](CC(C)C)C(=O)N[C@@H](CO)C(=O)N[C@@H](C)C(=O)N[C@@H](CC(C)C)C(=O)N[C@H](C(=O)O)CSSC[C@@H](C(=O)N[C@@H](C)C(=O)N[C@@H](CO)C(=O)N[C@@H](CO)C(=O)N[C@@H](CCCNC(=N)N)C(=O)N[C@@H](Cc2c[nH]c3ccccc23)C(=O)O)NC1=O (I: H-KESVRLCGLEYIRTVIYICASSRW-OH / II: H-CTDGASMTDLSALC-OH; disulfide I:7-II:1, I:19-II:14) | 100 nM | 145 nM |
| I: H-KESVRLCGLEYIRTVIYICASSRW-OH / II: H-RDLQALCCREGCSMKELSTLC-OH (disulfide I:7-II:8, I:19-II:21, II:7-II:12) | 0.35 nM | 5.5 nM |

The next lines start with the values.

| EC50 (Relaxin-3 receptor 2 [1]) | Ki (Relaxin-3 receptor 2 [2]) | Molecule |
| --- | --- | --- |
| 2.75 nM | – | CC[C@H](C)[C@@H]1NC(=O)[C@H](Cc2ccc(O)cc2)NC(=O)[C@H]([C@@H](C)CC)NC(=O)[C@H](C(C)C)NC(=O)[C@H]([C@@H](C)O)NC(=O)[C@H](CCCNC(=N)N)NC(=O)[C@H](C(C)C)NC(=O)[C@H](Cc2ccc(O)cc2)NC(=O)[C@H](CC(=O)O)NC(=O)[C@H](CC(C)C)NC(=O)CNC(=O)[C@@H](NC(=O)[C@H](CC(C)C)NC(=O)[C@H](CCCCN)NC(=O)[C@@H](NC(=O)[C@@H](NC(=O)[C@H](CCC(N)=O)NC(=O)[C@H](CCCNC(=N)N)NC(=O)[C@@H](N)CO)[C@@H](C)O)C(C)C)CSSC[C@@H]2NC(=O)[C@@H](NC(=O)[C@H](CC(C)C)NC(=O)[C@@H](NC(=O)[C@H](CCC(N)=O)NC(=O)[C@H](CC(C)C)NC(=O)[C@H](CC(=O)O)NC(=O)C3CCC(=O)N3)[C@@H](C)O)CSSC[C@@H](NC(=O)CNC(=O)[C@H](CC(=O)O)NC(=O)[C@H]([C@@H](C)O)NC2=O)C(=O)N[C@H](CO)C(=O)N[C@H](CCSC)C(=O)N[C@H]([C@H](C)O)C(=O)N[C@H](CC(=O)O)C(=O)N[C@H](CC(C)C)C(=O)N[C@H](CO)C(=O)N[C@H](C)C(=O)N[C@H](CC(C)C)C(=O)N[C@@H](C(=O)O)CSSC[C@H](C(=O)N[C@@H](C)C(=O)N[C@@H](CO)C(=O)N[C@@H](CO)C(=O)N[C@@H](CCCNC(=N)N)C(=O)N[C@@H](Cc2c[nH]c3ccccc23)C(=O)O)NC1=O (stereo not given in full) |
| 603 nM | 912 nM | CC[C@H](C)[C@@H]1NC(=O)[C@H](Cc2ccc(O)cc2)NC(=O)[C@H]([C@@H](C)CC)NC(=O)[C@H](C(C)C)NC(=O)[C@H]([C@@H](C)O)NC(=O)[C@H](CCCNC(=N)N)NC(=O)[C@H]([C@@H](C)CC)NC(=O)[C@H](Cc2ccc(O)cc2)NC(=O)[C@H](CCC(=O)O)NC(=O)[C@H](CC(C)C)NC(=O)CNC(=O)[C@@H](NC(=O)[C@H](CC(C)C)NC(=O)[C@H](CCCNC(=N)N)NC(=O)[C@@H](NC(=O)[C@H](CO)NC(=O)[C@H](CCC(=O)O)NC(=O)[C@@H](N)CCCCN)C(C)C)CSSC[C@H](N)C(=O)N[C@@H](CCCNC(=N)N)C(=O)N[C@@H](CC(=O)O)C(=O)NCC(=O)N[C@@H](C)C(=O)N[C@@H](CO)C(=O)N[C@@H](CCSC)C(=O)N[C@@H]([C@@H](C)O)C(=O)N[C@@H](CC(=O)O)C(=O)N[C@@H](CC(C)C)C(=O)N[C@@H](CO)C(=O)N[C@@H](C)C(=O)N[C@@H](CC(C)C)C(=O)N[C@H](C(=O)O)CSSC[C@@H](C(=O)N[C@@H](C)C(=O)N[C@@H](CO)C(=O)N[C@@H](CO)C(=O)N[C@@H](CCCNC(=N)N)C(=O)N[C@@H](Cc2c[nH]c3ccccc23)C(=O)O)NC1=O (I: H-KESVRLCGLEYIRTVIYICASSRW-OH / II: H-CRDGASMTDLSALC-OH; disulfide I:7-II:1, I:19-II:14) |
| 33.9 nM | 18.6 nM | CC[C@H](C)[C@@H]1NC(=O)[C@H](Cc2ccc(O)cc2)NC(=O)[C@H]([C@@H](C)CC)NC(=O)[C@H](C(C)C)NC(=O)[C@H]([C@@H](C)O)NC(=O)[C@H](CCCNC(=N)N)NC(=O)[C@H](C(C)C)NC(=O)[C@H](Cc2ccc(O)cc2)NC(=O)[C@H](CC(=O)O)NC(=O)[C@H](CC(C)C)NC(=O)CNC(=O)[C@@H](NC(=O)[C@H](CC(C)C)NC(=O)[C@H](CCCCN)NC(=O)[C@@H](NC(=O)[C@@H](NC(=O)[C@H](CCC(N)=O)NC(=O)[C@H](CCCNC(=N)N)NC(=O)[C@@H](N)CO)[C@@H](C)O)C(C)C)CSSC[C@H](N)C(=O)N[C@@H](CCCNC(=N)N)C(=O)N[C@@H](CCC(=O)O)C(=O)NCC(=O)N[C@@H](C)C(=O)N[C@@H](CO)C(=O)N[C@@H](CCSC)C(=O)N[C@@H](CCCCN)C(=O)N[C@@H](CCC(=O)O)C(=O)N[C@@H](CC(C)C)C(=O)N[C@@H](CO)C(=O)N[C@@H]([C@@H](C)O)C(=O)N[C@@H](CC(C)C)C(=O)N[C@H](C(=O)O)CSSC[C@@H](C(=O)N[C@@H](C)C(=O)N[C@@H](CO)C(=O)N[C@@H](CO)C(=O)N[C@@H](CCCNC(=N)N)C(=O)N[C@@H](Cc2c[nH]c3ccccc23)C(=O)O)NC1=O (I: H-SRQTVKLCGLDYVRTVIYICASSRW-OH / II: H-CREGASMKELSTLC-OH; disulfide I:8-II:1, I:20-II:14) |

— ChEMBL document CHEMBL4715703, “Engineering of a Novel Simplified Human Insulin-Like Peptide 5 Agonist” (J Med Chem, 2016)
